The source of these data is PubChem BioAssay AID256 (DTP/NCI, 2004).

In the experiment the test system is CD2F1 mice, L1210 leukemia ip, survival T/C. In words: NCI In Vivo Anticancer Drug Screen. Data for tumor model L1210 Leukemia (intraperitoneal) in CD2F1 (CDF1) mice. Conditions: higher = longer survival. In outline: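 Transplantable tumor in mice; compound-treated vs vehicle-treated groups. Read-out = treated/control ratio of the measured endpoint.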
[1] abbreviates: endpoint: mean survival time, dose: 100.0 mg/kg/injection, schedule: Q04DX003 (ip), vehicle: saline with Tween-80.
Setting [2] is: endpoint: mean survival time, dose: 200.0 mg/kg/injection, schedule: Q04DX003 (ip), vehicle: saline with Tween-80.
[3] abbreviates: endpoint: mean survival time, dose: 400.0 mg/kg/injection, schedule: Q04DX003 (ip), vehicle: saline with Tween-80.
The mark [4] stands for this setting: endpoint: mean survival time, dose: 100.0 mg/kg/injection, schedule: Q04DX003 (ip), vehicle: saline.
Setting [5] is: endpoint: mean survival time, dose: 200.0 mg/kg/injection, schedule: Q04DX003 (ip), vehicle: saline.
Where [6] appears, read: endpoint: mean survival time, dose: 400.0 mg/kg/injection, schedule: Q04DX003 (ip), vehicle: saline.
[7] abbreviates: endpoint: mean survival time, dose: 100.0 mg/kg/injection, schedule: Q01DX009 (ip), vehicle: saline with Tween-80.
The mark [8] stands for this setting: endpoint: mean survival time, dose: 200.0 mg/kg/injection, schedule: Q01DX009 (ip), vehicle: saline with Tween-80.
Setting [9] is: endpoint: mean survival time, dose: 400.0 mg/kg/injection, schedule: Q01DX009 (ip), vehicle: saline with Tween-80.
The mark [10] stands for this setting: endpoint: mean survival time, dose: 100.0 mg/kg/injection, schedule: Q04DX002 (ip), vehicle: saline with Tween-80.
The mark [11] stands for this setting: endpoint: mean survival time, dose: 200.0 mg/kg/injection, schedule: Q04DX002 (ip), vehicle: saline with Tween-80.
The mark [12] stands for this setting: endpoint: mean survival time, dose: 400.0 mg/kg/injection, schedule: Q04DX002 (ip), vehicle: saline with Tween-80.

Where “and” joins values, the source holds several entries; their conditions need not be identical. Equal values may be shown once. Toxic doses and inconclusive results are not listed.

Consider `Oc1ccc2cc3ccccc3cc2c1`, for which the T/C runs as follows: (endpoint: mean survival time, dose: 25.0 mg/kg/injection, schedule: Q01DX001 (ip), vehicle: DMSO) 104 % of control; (endpoint: mean survival time, dose: 50.0 mg/kg/injection, schedule: Q01DX001 (ip), vehicle: DMSO) 93 % of control; (endpoint: mean survival time, dose: 100.0 mg/kg/injection, schedule: Q01DX001 (ip), vehicle: DMSO) 87 % of control and 93 % of control.
Take `CC1(C)CC2(OC2c2cccc(Cl)c2)C(=O)c2ccccc21` (centres undefined): the T/C is, setting by setting: (endpoint: mean survival time, dose: 100.0 mg/kg/injection, schedule: Q01DX009 (ip), vehicle: other) 94 % of control; (endpoint: mean survival time, dose: 200.0 mg/kg/injection, schedule: Q01DX009 (ip), vehicle: other) 94 % of control; (endpoint: mean survival time, dose: 400.0 mg/kg/injection, schedule: Q01DX009 (ip), vehicle: other) 91 % of control.
On to `O=C(N/N=C/c1ccc2c(c1)CCC2)c1ccncc1`, for which the T/C runs as follows: under setting [1], 98 % of control; under setting [2], 96 % of control; under setting [3], 98 % of control.
`NCCNC(=O)c1ccccc1`: the T/C was 103 % of control under setting [4], 101 % of control under setting [5] and 100 % of control under setting [6].
On to `COc1cc(NS(C)(=O)=O)ccc1Nc1c2ccc([N+](=O)[O-])cc2nc2c(C)cccc12`, for which the T/C (endpoint: mean survival time, dose: 3.75 mg/kg/injection, schedule: Q04DX003 (ip), vehicle: saline with Tween-80) was 151 % of control; the T/C (endpoint: mean survival time, dose: 7.5 mg/kg/injection, schedule: Q01DX009 (ip), vehicle: saline with Tween-80) is 111 % of control; the T/C (endpoint: mean survival time, dose: 7.5 mg/kg/injection, schedule: Q04DX003 (ip), vehicle: saline with Tween-80) is 164 % of control; the T/C (endpoint: mean survival time, dose: 15.0 mg/kg/injection, schedule: Q04DX003 (ip), vehicle: saline with Tween-80) was 235 % of control; the T/C (endpoint: mean survival time, dose: 37.5 mg/kg/injection, schedule: Q04DX003 (ip), vehicle: saline) was 109 % of control; the T/C (endpoint: mean survival time, dose: 75.0 mg/kg/injection, schedule: Q04DX003 (ip), vehicle: saline) is 86 % of control.
Turning to `CC(=O)CC(C)=Nc1ccc([N+](=O)[O-])cc1`, the T/C is 90 % of control under setting [7], 93 % of control under setting [8] and 90 % of control under setting [9].
Regarding `CCCCCCCCCC[N+]1(C)CCC[N+](C)(CCCCCCCCCC)CC1` (centres undefined), the T/C was 95 % of control (endpoint: mean survival time, dose: 12.5 mg/kg/injection, schedule: Q01DX001 (ip), vehicle: saline with Tween-80) and 105 % of control (endpoint: mean survival time, dose: 25.0 mg/kg/injection, schedule: Q01DX001 (ip), vehicle: saline with Tween-80).
In the case of `CCOP1(=O)OCC(C(C)(C)C)CO1` (centres undefined), the T/C runs as follows: (endpoint: mean survival time, dose: 12.5 mg/kg/injection, schedule: Q04DX003 (ip), vehicle: Klucel (hydroxypropylcellulose) (HPC)) 102 % of control; (endpoint: mean survival time, dose: 25.0 mg/kg/injection, schedule: Q04DX003 (ip), vehicle: Klucel (hydroxypropylcellulose) (HPC)) 102 % of control.
As to `CCCSc1ncnc2nc[nH]c12`, the T/C (endpoint: median survival time, dose: 31.25 mg/kg/injection, schedule: Q01DX009 (ip), vehicle: saline) was 100 % of control; the T/C (endpoint: median survival time, dose: 62.5 mg/kg/injection, schedule: Q01DX009 (ip), vehicle: saline) is 114 % of control and 111 % of control; the T/C (endpoint: median survival time, dose: 125.0 mg/kg/injection, schedule: Q01DX009 (ip), vehicle: saline) was 121 % of control and 111 % of control; the T/C (endpoint: median survival time, dose: 250.0 mg/kg/injection, schedule: Q01DX009 (ip), vehicle: saline) was 122 % of control.
On to `O=C(CBr)Nc1ccc2[nH]c3cnccc3c2c1`, for which the T/C reads like this: under setting [10], 101 % of control; under setting [11], 104 % of control; under setting [12], 97 % of control.
For `COc1cc(/C=N/NC(=O)c2ccccc2)ccc1O`, the T/C is 97 % of control (endpoint: mean survival time, dose: 100.0 mg/kg/injection, schedule: Q01DX009 (ip), vehicle: Klucel (hydroxypropylcellulose) (HPC)); 97 % of control (endpoint: mean survival time, dose: 200.0 mg/kg/injection, schedule: Q01DX009 (ip), vehicle: Klucel (hydroxypropylcellulose) (HPC)); 97 % of control (endpoint: mean survival time, dose: 400.0 mg/kg/injection, schedule: Q01DX009 (ip), vehicle: Klucel (hydroxypropylcellulose) (HPC)).
For `CC(=O)NC(C)C1(O)CCCCC1` (centres undefined), the T/C by setting is: under setting [4], 100 % of control; under setting [5], 97 % of control; under setting [6], 94 % of control.
With `CO/N=C/[C@@H](CO)O[C@H](/C=N/OC)n1cnc2c(N)ncnc21`, the T/C by setting is: (endpoint: median survival time, dose: 12.5 mg/kg/injection, schedule: Q01DX005 (ip), vehicle: distilled water + Tween-80) 97 % of control; (endpoint: median survival time, dose: 25.0 mg/kg/injection, schedule: Q01DX005 (ip), vehicle: distilled water + Tween-80) 100 % of control; (endpoint: median survival time, dose: 50.0 mg/kg/injection, schedule: Q01DX005 (ip), vehicle: distilled water + Tween-80) 97 % of control; (endpoint: median survival time, dose: 100.0 mg/kg/injection, schedule: Q01DX005 (ip), vehicle: distilled water + Tween-80) 96 % of control; (endpoint: median survival time, dose: 200.0 mg/kg/injection, schedule: Q01DX005 (ip), vehicle: distilled water + Tween-80) 100 % of control.
Take `CN1CN(C2CCCCC2)CSC1=S`: the T/C was 102 % of control (endpoint: mean survival time, dose: 100.0 mg/kg/injection, schedule: Q01DX001 (ip), vehicle: saline); 102 % of control under setting [7]; 100 % of control (endpoint: mean survival time, dose: 200.0 mg/kg/injection, schedule: Q01DX001 (ip), vehicle: saline); 96 % of control under setting [8]; 102 % of control (endpoint: mean survival time, dose: 400.0 mg/kg/injection, schedule: Q01DX001 (ip), vehicle: saline); 106 % of control under setting [9].
As for `Cc1nc(CCCCCCCC(=O)O)ccc1O`, the T/C (endpoint: mean survival time, dose: 100.0 mg/kg/injection, schedule: Q04DX002 (ip), vehicle: saline) was 94 % of control; the T/C (endpoint: mean survival time, dose: 200.0 mg/kg/injection, schedule: Q04DX002 (ip), vehicle: saline) is 97 % of control; the T/C (endpoint: mean survival time, dose: 400.0 mg/kg/injection, schedule: Q04DX002 (ip), vehicle: saline) is 109 % of control.
Regarding `CC(CNCCN)C[Si](C)(C)C` (centres undefined), the T/C reads like this: (endpoint: mean survival time, dose: 6.25 mg/kg/injection, schedule: Q01DX009 (ip), vehicle: saline with Tween-80) 100 % of control; (endpoint: mean survival time, dose: 12.5 mg/kg/injection, schedule: Q01DX009 (ip), vehicle: saline with Tween-80) 98 % of control; (endpoint: mean survival time, dose: 25.0 mg/kg/injection, schedule: Q01DX009 (ip), vehicle: saline with Tween-80) 104 % of control.
As for `CC1CC(C)(C)N=C(C2(c3ccccc3)CCC2)O1` (centres undefined), the T/C was 101 % of control (endpoint: mean survival time, dose: 100.0 mg/kg/injection, schedule: Q01DX001 (ip), vehicle: saline with Tween-80); 101 % of control under setting [10]; 111 % of control (endpoint: mean survival time, dose: 200.0 mg/kg/injection, schedule: Q01DX001 (ip), vehicle: saline with Tween-80); 93 % of control under setting [11]; 98 % of control (endpoint: mean survival time, dose: 400.0 mg/kg/injection, schedule: Q01DX001 (ip), vehicle: saline with Tween-80); 93 % of control under setting [12].
For `COC(=O)CC1CCS(=O)(=O)C1` (centres undefined), the T/C reads like this: under setting [1], 98 % of control; under setting [2], 93 % of control; under setting [3], 92 % of control.
